Experimental data as given in patent publication US7714146B2, “Azulene-oxindole compounds as multiple-kinase inhibitors and useful as anticancer agents” (Industrial Technology Research Institute, priority 2006, dated 2010).

Key:
Assay type in all cases: biochemical
[1] = target: T1, human FLT-3 (Arg571-Ser993) (Homo sapiens, UniProt P36888); assay: FLT-3 kinase assay (HTScan kit, DELFIA); conditions: for inhibition at 1 µM: compound at 1 μM, read-out: FLT-3 1 μM, % of inhibition relative to control; for inhibition at 0.1 µM: compound at 0.1 μM, read-out: FLT-3 0.1 μM, % of inhibition relative to control
T1 construct: human FLT-3 (Arg571-Ser993); GST (N); purchased Cell Signaling Technology; host or cells: baculovirus expression system
T1 sequence (P36888 571-993): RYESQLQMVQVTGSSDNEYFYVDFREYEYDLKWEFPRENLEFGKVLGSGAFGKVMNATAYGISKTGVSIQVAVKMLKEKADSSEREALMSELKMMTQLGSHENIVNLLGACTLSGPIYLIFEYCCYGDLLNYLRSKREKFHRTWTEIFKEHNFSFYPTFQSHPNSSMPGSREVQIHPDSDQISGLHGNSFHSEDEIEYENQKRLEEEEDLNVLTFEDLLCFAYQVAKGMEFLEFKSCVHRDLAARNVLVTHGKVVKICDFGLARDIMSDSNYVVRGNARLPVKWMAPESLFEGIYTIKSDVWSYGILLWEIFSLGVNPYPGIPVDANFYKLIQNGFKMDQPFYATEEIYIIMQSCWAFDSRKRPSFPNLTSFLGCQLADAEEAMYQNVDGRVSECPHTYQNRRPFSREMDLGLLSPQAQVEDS
Experimental: (§1) Compounds 1-100 were treated for their efficacy in inhibiting activities of FLT-3, c-KIT, KDR/Flk-1, PDGFR-beta, EGFR, and PKC kinases by biochemical DELFIA (Dissociation Enhanced Lanthanide FIA) assays according to the procedure described below. The assays were conducted by, Division of Cell Engineering, Biomedical Engineering Research Laboratories, Industrial Technology Research Institute, Bldg. 53, 195, sec. 4, Chung Hsing Rd. Chutung, Hsinchu, Taiwan 310, R.O.C.
(§2) The FLT-3 assay was conducted following the protocol described in Protocol for HTScan® FLT-3 Kinase Assay Kit (Cell Signaling Technology®). The assay was conducted under the following conditions: FLT-3 source: The GST-kinase fusion protein was produced using a baculovirus expression system with a construct expressing human FLT-3 (Arg571-Ser993) (GenBank accession No. NM_004119) with an amino-terminal GST tag, substrate: 1.5 μM Gastrin Precursor Biotinylated Peptide (with Tyr87 as phosphorylation site), vehicle: 1% DMSO, pre-incubation time/temperature: 5 minutes at room temperature, incubation time/temperature: 30 minutes at room temperature, incubation buffer: 60 mM HEPES pH 7.5, 5 mM MgCl2, 5 mM MnCl2, 3 μM Na3VO4, 1.25 mM DTT, 20 μM ATP, and quantitative method: DELFIA® Assay.

[2] = target: T2, human EGFR (His672-Ala1210) (Homo sapiens, UniProt P00533); assay: EGFR kinase assay (HTScan kit, DELFIA); conditions: compound at 0.1 μM; read-out: EGFR 0.1 μM, % of inhibition relative to control
T2 construct: human EGFR (His672-Ala1210); GST (N); purchased Cell Signaling Technology; host or cells: baculovirus expression system
T2 sequence (P00533 672-1210): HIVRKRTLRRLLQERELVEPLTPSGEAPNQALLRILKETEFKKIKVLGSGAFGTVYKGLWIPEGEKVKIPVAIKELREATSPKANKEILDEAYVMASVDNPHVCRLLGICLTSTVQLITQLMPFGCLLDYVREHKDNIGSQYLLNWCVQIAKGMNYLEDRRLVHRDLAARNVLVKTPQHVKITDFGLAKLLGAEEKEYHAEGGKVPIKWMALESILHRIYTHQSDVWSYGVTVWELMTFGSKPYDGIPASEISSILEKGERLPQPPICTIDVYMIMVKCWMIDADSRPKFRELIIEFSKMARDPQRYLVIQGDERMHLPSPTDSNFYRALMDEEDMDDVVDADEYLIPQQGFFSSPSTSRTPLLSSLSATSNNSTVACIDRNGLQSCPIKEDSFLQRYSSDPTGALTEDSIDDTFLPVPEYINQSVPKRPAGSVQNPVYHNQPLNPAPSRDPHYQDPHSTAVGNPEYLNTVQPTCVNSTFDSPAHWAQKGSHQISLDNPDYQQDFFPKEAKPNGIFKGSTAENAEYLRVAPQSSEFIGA
Experimental: as §1
as §2, with “EGFR” for “FLT-3”, “EGFR (His672-Ala1210)” for “FLT-3 (Arg571-Ser993)”, “Accession” for “accession”, “NM_005228)” for “NM_004119)”, “This biotinylated peptide contains the residues surrounding Tyr-66 of PTP1B,” for “Gastrin Precursor Biotinylated Peptide (with Tyr87 as phosphorylation site),”

[3] = target: T3, human c-KIT (Thr544-Val976) (Homo sapiens, UniProt P10721); assay: c-KIT kinase assay (HTScan kit, DELFIA); conditions: for inhibition at 0.1 µM: compound at 0.1 μM, read-out: c-KIT 0.1 μM, % of inhibition relative to control; for inhibition at 1 µM: compound at 1 μM, read-out: c-KIT 1 μM, % of inhibition relative to control
T3 construct: human c-KIT (Thr544-Val976); GST (N); purchased Cell Signaling Technology; host or cells: baculovirus expression system
T3 sequence (P10721 544-976): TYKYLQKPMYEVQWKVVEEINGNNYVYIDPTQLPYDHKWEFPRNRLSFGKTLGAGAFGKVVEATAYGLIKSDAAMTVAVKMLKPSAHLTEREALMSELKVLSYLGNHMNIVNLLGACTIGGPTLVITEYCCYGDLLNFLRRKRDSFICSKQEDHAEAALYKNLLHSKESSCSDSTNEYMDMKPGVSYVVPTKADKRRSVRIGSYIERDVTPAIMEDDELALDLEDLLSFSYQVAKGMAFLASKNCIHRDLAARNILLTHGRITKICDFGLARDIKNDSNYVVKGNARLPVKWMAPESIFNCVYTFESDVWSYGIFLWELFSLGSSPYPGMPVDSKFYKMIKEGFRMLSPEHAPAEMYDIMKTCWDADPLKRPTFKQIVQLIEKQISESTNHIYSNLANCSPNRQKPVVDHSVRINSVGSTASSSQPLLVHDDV
Experimental: as §1
as §2, with “c-KIT” for “FLT-3”, “GST-c-KIT” for “GST-kinase”, “c-KIT (Thr544-Val976)” for “FLT-3 (Arg571-Ser993) (GenBank accession No. NM_004119)”, “This biotinylated peptide contains the residues surrounding Tyr-996 of KDR,” for “Gastrin Precursor Biotinylated Peptide (with Tyr87 as phosphorylation site),”

[4] = target: T4, human VEGFR-2 (Val789-Val1356) (Homo sapiens, UniProt P35968); assay: KDR kinase assay (HTScan VEGFR-2 kit, DELFIA); conditions: for inhibition at 0.1 µM: compound at 0.1 μM, read-out: KDR 0.1 μM, % of inhibition relative to control; for inhibition at 1 µM: compound at 1 μM, read-out: KDR 1 μM, % of inhibition relative to control
T4 construct: human VEGFR-2 (Val789-Val1356); GST (N); purchased Cell Signaling Technology; host or cells: baculovirus expression system
T4 sequence (P35968 789-1356): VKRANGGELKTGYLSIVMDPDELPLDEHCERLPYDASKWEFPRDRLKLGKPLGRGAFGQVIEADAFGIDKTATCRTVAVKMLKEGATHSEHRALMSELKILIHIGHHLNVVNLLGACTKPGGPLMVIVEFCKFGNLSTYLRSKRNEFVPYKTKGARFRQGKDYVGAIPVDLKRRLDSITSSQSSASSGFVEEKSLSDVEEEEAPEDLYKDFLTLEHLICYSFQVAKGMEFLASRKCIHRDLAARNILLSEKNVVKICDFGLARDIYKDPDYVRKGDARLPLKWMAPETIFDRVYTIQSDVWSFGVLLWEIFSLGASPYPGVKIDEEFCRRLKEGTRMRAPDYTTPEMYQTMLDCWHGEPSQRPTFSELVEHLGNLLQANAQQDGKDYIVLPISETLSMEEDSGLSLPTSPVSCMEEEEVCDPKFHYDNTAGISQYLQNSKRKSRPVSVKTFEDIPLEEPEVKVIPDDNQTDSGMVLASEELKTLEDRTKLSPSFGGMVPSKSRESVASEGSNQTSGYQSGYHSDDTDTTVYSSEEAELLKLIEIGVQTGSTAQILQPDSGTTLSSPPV
Experimental: as §1
The KDR assay was conducted following the protocol described in Protocol for HTScan® VEGFR-2 Kinase Assay Kit (Cell Signaling Technology®). The assay was conducted under the following conditions: KDR source: The GST-Kinase fusion protein was produced using a baculovirus expression system with a construct expressing human VEGFR-2 (Val789-Val1356) (GenBank Accession No. NM_002253) with an amino-terminal GST tag, substrate: 1.5 μM Gastrin Precursor Biotinylated Peptide (with Tyr87 as phosphorylation site), vehicle: 1% DMSO, pre-incubation time/temperature: 5 minutes at room temperature, incubation time/temperature: 30 minutes at room temperature, incubation buffer: 60 mM HEPES pH 7.5, 5 mM MgCl2, 5 mM MnCl2, 3 μM Na3VO4, 1.25 mM DTT, 20 μM ATP, and quantitative method: DELFIA® Assay.

Row | SMILES | inhibition at 1 µM [1] [%] | inhibition at 0.1 µM [2] [%] | inhibition at 0.1 µM [3] [%] | inhibition at 1 µM [3] [%] | inhibition at 0.1 µM [1] [%] | inhibition at 0.1 µM [4] [%] | inhibition at 1 µM [4] [%]
1 | COc1ccc2c(c1)NC(=O)/C2=C\c1ccc2cccccc1-2 [Compound 31, 3-Azulen-1-ylmethylene-6-methoxy-1,3-dihydro-indol-2-one] | 14.9 | 0.2 |  |  |  |  | 
2 | O=C1Nc2ccc(F)cc2/C1=C/c1cc(F)c2cccccc1-2 [Compound 60, 5-Fluoro-3-(3-fluoro-azulen-1-ylmethylene)-1,3-dihydro-indol-2-one] | 52.8 |  | 28.3 | 28.3 | 52.6 | 55.6 | 40.3
3 | O=C1Nc2ccc(F)cc2/C1=C\c1ccccc2cccc1-2 [Compound 52, 3-Azulen-4-ylmethylene-5-fluoro-1,3-dihydro-indol-2-one] | 44.2 |  | 20.2 | 20.2 | 14.1 | 12.6 | 9.1
4 | Cc1cc(C=C2C(=O)Nc3c(F)cccc32)c2ccccc(OCCCN(C)C)c1-2 [Compound 99, 3-[4-(3-Dimethylamino-propoxy)-3-methyl-azulen-1-ylmethylene]-7-fluoro-1,3-dihydro-indol-2-one] | 59.4 |  | 34.4 | 34.4 | 7.3 | 28.7 | 73.9
5 | CCc1cc(C=C2C(=O)Nc3ccc(S(=O)(=O)NCCCN4CCN(C)CC4)cc32)c2cccccc1-2 [Compound 83, 3-(3-Ethyl-azulen-1-ylmethylene)-2-oxo-2,3-dihydro-1H-indole-5-sulfonic acid [3-(4-methyl-piperazin-1-yl)-propyl]-amide] | 17.7 |  | 19.6 | 19.6 | 10.5 | 20.8 | 26.7
6 | CN(C)Cc1c(/C=C2/C(=O)Nc3ccc(F)cc32)cc2cccccc1-2 [Compound 59, 3-(1-Dimethylaminomethyl-azulen-2-ylmethylene)-5-fluoro-1,3-dihydro-indol-2-one] | 49.8 |  | 24.2 | 24.2 | 43 | 19.9 | 28.5
7 | COc1ccc2c(c1)NC(=O)/C2=C/c1ccc2cccccc1-2 [Compound 30, 3-Azulen-1-ylmethylene-6-methoxy-1,3-dihydro-indol-2-one] | 34.6 |  | 26.9 | 26.9 | 7.3 | 9.5 | 15.6
8 | O=C1Nc2ccc(F)cc2/C1=C\c1ccc2cccccc1-2 [Compound 25, 3-Azulen-1-ylmethylene-5-fluoro-1,3-dihydro-indol-2-one] | 58.8 |  | 75 | 75 | 26.2 | 7.7 | 45.7
9 | CCc1cc(C=C2C(=O)Nc3ccc(F)cc32)c2cccccc1-2 [Compound 80, 3-(3-Ethyl-azulen-1-ylmethylene)-5-fluoro-1,3-dihydro-indol-2-one] | 19.7 |  | 29.6 | 29.6 | 17.6 | 30.2 | 32
10 | O=C1Nc2ccc(F)cc2/C1=C\c1ccc2cccc-2cc1 [Compound 53, 3-Azulen-6-ylmethylene-5-fluoro-1,3-dihydro-indol-2-one] | 52.7 |  | 39.8 | 39.8 | 30.6 | 16.3 | 20.1
11 | Cc1cc(C=C2C(=O)Nc3ncccc32)c2ccccc(OCCCN(C)C)c1-2 [Compound 104, 3-(((3aZ,5Z,7E)-8-(3-(dimethylamino)propoxy)-1-methylazulen-3-yl)methylene)-1H-pyrrolo[2,3-b]pyridin-2(3H)-one] | 44.8 |  | 42.5 | 57.4 | 14.6 | 30.1 | 88
12 | Cc1cc(C=C2C(=O)Nc3ccc(S(=O)(=O)NCCCN4CCN(C)CC4)cc32)c2cccccc1-2 [Compound 82, 3-(3-Methyl-azulen-1-ylmethylene)-2-oxo-2,3-dihydro-1H-indole-5-sulfonic acid [3-(4-methyl-piperazin-1-yl)-propyl]-amide] | 13.5 |  | 30.7 | 30.7 | 12.8 | 17.6 | 18.5
13 | Cc1[nH]c(/C=C2\C(=O)Nc3ccc(F)cc32)c2ccc(=O)ccc12 [Compound 63, 1-(5-Fluoro-2-oxo-1,2-dihydro-indol-3-ylidenemethyl)-3-methyl-2H-cyclohepta[c]pyrrol-6-one] | 55.7 |  | 57.1 | 57.1 | 50.5 | 6.7 | 32.2
14 | Cc1cc(/C=C2/C(=O)N(Cc3ccccc3)c3ccccc32)c2c(C)ccc(C(C)C)cc1-2 [Compound 13, 1-Benzyl-3-(5-isopropyl-3,8-dimethyl-azulen-1-ylmethylene)-1,3-dihydro-indol-2-one] | 0.2 |  | 66.2 | 66.2 | 4.4 | 54.1 | 83.9
